From PubChem BioAssay AID1963825 (Molecular Pharmacology Branch, DTP, NCI, 2024)
Values joined by “and” are separate entries in the source; they are usually repeats but may differ in a detail not shown here. Equal values may be shown once.

Experiment: Anticancer human tumor 997537-175-T-J1-PDC patient-derived colon adenocarcinoma cell line growth inhibition [POLQ]
Details: 997537-175-T-J1-PDC complex spheroid viability, combination with POLQ inhibitors; for viability, T/C: stronger effect = lower value
Protocol: Multicellular complex tumor spheroid response to Polymerase (POL) inhibitors (novobiocin, ART-558, RP6685) in combination with a variety of drugs and investigational agents in selected tumor cell lines
The POL inhibitors (novobiocin, ART-558, and RP6685) were evaluated both individually and in combination with standard of care and investigational anticancer small molecules within a complex spheroid model of solid tumors. . Complex spheroids include a stromal component modeled by human endothelial cells (HUVEC) and fibroblasts modeled by human mesenchymal stem cells (MSCs). The concentration ranges selected for each drug and investigational agent were based upon clinically achievable concentrations if the clinical Cmax of the agent was known.
Compounds. The drugs and investigational agents: novobiocin (NSC847541), ART-558 (NSC835418), RP-6685 (NSC848927), peposertib (NSC802822), ceralasertib (NSC780249), elimusertib (NSC800525), camonsertib (NSC841442), AZD-1390 (NSC803789), olaparib (NSC753686), talazoparib (NSC767125), rucaparib (NSC756644), sotorasib (NSC818433), MRTX-1133 (NSC836407), SN-38 (NSC673596), topotecan (NSC609699), epotoside (NSC141540), doxorubicin (NSC123127), gemcitabine (NSC613327), 5-fluorouracil (NSC19893), paclitaxel (NSC125973), vemurafenib (NSC761431), MSA-2 (NSC828583), SN-011 (NSC837082), adavosertib (NSC754352), prexasertib (NSC758257), carboplatin (NSC241240) and oxaliplatin (NSC266046), were obtained from the National Cancer Institute (NCI) Developmental Therapeutics Program Chemical Repository (21). The FDA-approved anticancer drug set is available from the Developmental Therapeutics Program at https://dtp.cancer.gov/organization/dscb/obtaining/. […] The stock solutions were prepared in dimethyl sulfoxide (DMSO, Sigma-Aldrich, St. Louis, MO, cat. D2650), except for the platinum compounds which were prepared in saline (Quality Biological, Gaithersburg, MD, cat. 114-055-101), at 800-fold the tested concentration and stored at -70 degrees C prior to their use. All drugs and investigational agents were tested over a range starting from a high concentration at or near the clinical Cmax and decreasing in half-log increments. If the clinical Cmax for an agent had not been determined, the highest concentration tested was 10 microM, except for SN-38, which was tested at a high concentration of 1 microM.
Cell Culture. All cells were maintained in an incubator at 37 degrees C and 5% CO2 with 95% humidity. The PDC lines were cultured according to standard operating procedures established by the NCI PDMR (https://pdmr.cancer.gov). Table 3 of the manuscript, lists the cell lines along with the number of the three cell types plated to form the mct-spheroids and media for tumor cell growth. After thawing, all PDC lines, except 997537-175-T-J1-PDC and 415267-285-R-J2-PDC, were cultured in Matrigel-coated flasks prepared with a working solution of 1X Ham's F-12 nutrient mix, without supplementation (Thermo Fisher Scientific, cat. 11765054), 100 U/mL penicillin-streptomycin (Thermo Fisher Scientific, cat. 15140122), and 2.5% Matrigel (Corning Inc., Corning, NY, cat. 354248) for the first three passages. The two PDC lines 997537-175-T-J1-PDC and 415267-285-R-J2-PDC were cultured on uncoated flasks. The 857933-349-R-J2-PDC line was cultured in 6C/Colon 1B media containing advanced DMEM/F-12 (Thermo Fisher Scientific, cat. 12634028), 10 mM HEPES (Thermo Fisher Scientific, cat. 15630080), 1X GlutaMAX supplement (Thermo Fisher Scientific, cat. 35050061), 0.1 mg/mL primocin (InvivoGen, San Diego, CA, cat. ant-pm-2), 10% defined fetal bovine serum, heat inactivated (HyClone Laboratories Inc., Logan, UT, cat. SH30070.03HI), 50% L-WRN conditioned media (ATCC, cat. CRL-3276), 1.25 mM N-Acetyl-L-cysteine (Sigma-Aldrich, cat. A9165), 10 mM nicotinamide (Sigma-Aldrich, cat. N0636), 1X B-27 supplement (Thermo Fisher Scientific, cat. 17504044), 1X N-2 supplement (Thermo Fisher Scientific, cat. […]
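Also: luminescence signal used as a surrogate for viable cells; spheroids exposed to drugs for seven days before readout.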

**Q.** What does the source list for COc1ccc([C@@H](O)c2cc(-c3ncnc4cc(N5CCOCC5)ccc34)c(F)cc2Cl)nn1?
**A.** viability, T/C (compound 0.0316 µM): 107% and 102% and 108%; viability, T/C (compound 0.1 µM): 103% and 94.5% and 93.7%; viability, T/C (compound 0.316 µM): 90.6% and 96.5% and 106%; viability, T/C (compound 1 µM): 100% and 105% and 104%; viability, T/C (compound 3.16 µM): 94.8% and 87.4% and 97.1%; viability, T/C (compound 10 µM): 83.2% and 80.4% and 92%; IC50 (curve of compound): > 10 µM

**Q.** Which viability, T/C (compound 0.0316 µM) does the source give for CC1COCCN1c1cc(-c2ccnn2C)c2ccnc(-c3ccn[nH]3)c2n1 (stereo not drawn) here?
**A.** 94.7% and 97.9% and 86.9%

**Q.** And the viability, T/C (compound 0.1 µM)?
**A.** 62% and 63.5% and 79.7%

**Q.** And the viability, T/C (compound 0.316 µM)?
**A.** 64.5% and 49% and 65.9%

**Q.** And the viability, T/C (compound 1 µM)?
**A.** 44.2% and 44.4% and 50.7%

**Q.** What about the viability, T/C (compound 3.16 µM) of the same compound?
**A.** 68% and 32.4% and 51.1%

**Q.** And the viability, T/C (compound 10 µM)?
**A.** 60.6% and 53.7% and 53.6%
